What was measured:
[1] = tested on: chick embryo chorioallantoic membrane; test: Angiostatic activity on chick embryo chorioallantoic membrane (CAM) model; details: in vivo
Experimental: For the study of angiogenesis the model used was the chick embryo chorioallantoic membrane model (Ribatti e al. Int. J. Dev. Biol., 40, 1189 (1996)).
300 embryonated hens' eggs were incubated at 37° C. in constant humidity conditions. On the 3rd day of incubation, after aspirating 2-3 ml of albumen from the acute pole of the egg so as to detach the CAM from the shell, a window was cut with scissors in the shell. The vessels underlying the CAM were thus exposed. The window was closed with a transparent glass panel and the eggs were put back into the incubator. […] The experiments were discontinued on the 12th day of incubation, when an overall assessment of the angiogenic activity of the molecules was carried out, expressed as percentage inhibition in relation to the number of experiments initiated and completed (Table 9). In addition, for compound ST1514, assayed at the concentration of 100 μg/embryo, a macroscopic quantitative evaluation of the angiostatic activity was also carried out according to the technique proposed by Brooks et al. (Science, 264, 569, (1994)), counting the number of vessels surrounding the sponge. […]

[2] = biological target: T1, FGFR/FGF2/HSPG ternary complex (Homo sapiens, UniProt P09038); test: Inhibition of FGF2-mediated intercellular adhesion of CHO-K1 and CHO-745flg cells; type: cell-based, Chinese hamster
T1 construct: expressed in transfected cells; host or cells: CHO 745/flg (HSPG-deficient CHO mutants transfected with FGFR-1); fixed CHO-K1 monolayer supplies HSPGs; FGF-2 added to the medium
T1 sequence (P09038 143-288, one chain of several): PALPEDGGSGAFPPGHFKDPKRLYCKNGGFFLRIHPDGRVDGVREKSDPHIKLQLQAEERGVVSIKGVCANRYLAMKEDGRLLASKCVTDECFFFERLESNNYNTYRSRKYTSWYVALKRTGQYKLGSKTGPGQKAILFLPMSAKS
Source text: To this end an in-vitro model was designed capable of assessing the interference of the various different heparin derivatives with bFGF binding to its own receptor.
These latter cells were stably transfected with cDNA for green fluorescent protein and for this reason could be observed under the fluorescence microscope with a combination of filters for the detection of green emission. In brief, the technique is based on the possibility that the two types of cells may interact (form stable bonds) only if FGF is added to the two cell types. In fact, in this case, the heparan sulphates of the CHO-745flg cells will bind to FGF, which in turn will bind to the CHO-K1 cells, establishing a bridge. The binding that occurs is detectable as a result of the green fluorescence emitted by the CHO-745flg cells.
CHO-K1 cells were seeded at a density of 90,000 cells/cm2 in 24-well plates. After 24 hours the cells were fixed in 3% glutaraldehyde in PBS for 2 hours at 4° C. and washed with 0.1 M glycine/PBS. […] After 2 hours' incubation at 37° C., the adhering cells were counted under the inverted microscope. The results were expressed as percentage of the number of cells adhering compared to those measured in the absence of the test compounds. […]

CAM = details: in the presence of corticosteroids; compared with heparin; cited from earlier work
[3] = Evaluation of heparin toxicity in Balb/c mice; type: in vivo; details: 50 mg/kg and 25 mg/kg subcutaneously, q2dx5
Experimental: 20 6-week-old female Balb/c mice weighing 20 g (Harlan), divided into groups by casual randomisation, were treated with heparin sodium, as a reference, and with the compound according to the present invention called STI514. The treatment schedule was of the q2dx5 type, i.e. 5 total administrations at intervals of 2 days, administering 200 μl/mouse of 50 mg/kg/10 ml and 25 mg/kg/10 ml solutions subcutaneously.
Heparin sodium: the solution is prepared by solubilizing 160 mg of powder in 4 ml of PBS 1× pH 7.4 free of Ca^++-and Mg^++-ions; it is subdivided into aliquots of 243 μl and stored at −20° C. At the time of treatment, the solution is diluted in Ca^++-and Mg^++-free PBS (Dulbecco, modified formula) 1×, pH 7.4 so as to have the substance at final concentrations of 50 mg/kg/10 ml and 25 mg/kg/10 ml.
ST1514: the solution is prepared by solubilizing 160 mg of powder in 4 ml of Ca^++-and Mg^++-free PBS 1×, pH 7.4; it is subdivided into aliquots of 243 μl and stored at −20° C. […]
Full blood count: the appliance (Cell Analyzer 580 A, DELCON) is used according to the standard procedure described in the operating manual. […] This solution is used for the WBC reading. Solution B, on the other hand, is used for the RBC and platelet (PLT) readings. Each sample is read in duplicate.
The data obtained will be analyzed using ANOVA.

## Heparin
[1]
  Angiostatic activity on CAM model (stated in words): no activity
[2]
  Cell-Cell Adh. (ID50, ng/mL), inhibition of FGF2-mediated cell-cell adhesion: 100 ng/mL

## 2-O-desulfated heparin
CAM
  antiangiogenic activity as assessed by means of the CAM test: partly maintained the antiangiogenic activity of heparin

## heparin sodium
[3]
  liver characteristics at autopsy: livers with abnormal characteristics

Reference: patent publication US8222231B2, “Derivatives of partially desulphated glycosaminoglycans endowed with antiangiogenic activity and devoid of anticoagulating effect” (Sigma-Tau Industrie Farmaceutiche Riunite SpA, priority 2000, dated 2012)
